# Experimental data published in patent US10294217B2, “Fluoroindole derivatives as muscarinic M1 receptor positive allosteric modulators” (Suven Life Sciences Limited, priority 2015, dated 2019).
# Structures can show the parent of a compound that is named as a salt.
# Target: human Muscarinic M1 receptor (Homo sapiens (Human), UniProt P11229)
# Experiment: Allosteric potency EC50 for muscarinic M1 receptor (CHO cells, pCRE-Luc reporter)
# Type: cell-based
# Details: hM1 PAM EC50, in presence of EC20 of acetylcholine; luciferase activity, 4 hours
# Description: Determination of Allosteric Potency EC50 Values for Muscarinic M1 Receptor:
# A stable CHO cell line expressing recombinant human Muscarinic M1 receptor and pCRE-Luc reporter system was used for cell-based assay. The assay offers a non-radioactive based approach to determine binding of a compound to GPCRs. In this specific assay, the level of intracellular cyclic AMP which is modulated by activation or inhibition of the receptor is measured. The recombinant cells harbor luciferase reporter gene under the control of cAMP response element.
# The above cells were grown in 96 well clear bottom white plates in Hams F12 medium containing 10% fetal bovine serum (FBS). Prior to the addition of compounds or standard agonist, cells were serum starved overnight. Increasing concentrations of test compounds were added along with EC20 of acetylcholine in OptiMEM medium to the cells. The incubation was continued at 37° C. in CO2 incubator for 4 hours. Medium was removed and cells were washed with phosphate buffered saline. The cells were lysed and luciferase activity was measured in a Luminometer. Luminescence units were plotted against the compound concentrations using Graphpad software. EC50 values of the compounds were defined as the concentration required in stimulating the luciferase activity by 50% in presence of EC20 of acetylcholine and the results are provided in table 1.
row,SMILES,EC50
1,"O=C(N[C@H]1CCNC[C@H]1F)c1cn(Cc2ccnc(Cl)c2)c2c(F)ccc(F)c12 (racemic) [Example 28, cis-N-(3-Fluoropiperidin-4-yl)-1-(2-chloropyridin-4-ylmethyl)-4,7-difluoro-1H-indole-3-carboxamide hydrochloride (Racemate)]",1570 nM
2,"O=C(N[C@@H]1CCNC[C@H]1F)c1cn(Cc2ccnc(F)c2)c2c(F)ccc(F)c12 (single isomer, unassigned; isomer-i) [Example 24, trans-N-(3-Fluoropiperidin-4-yl)-1-(2-fluoropyridin-4-ylmethyl)-4,7-difluoro-1H-indole-3-carboxamide hydrochloride (Isomer-I)]",1390 nM
3,"O=C(N[C@H]1CCNC[C@H]1F)c1cn(Cc2ccncc2F)c2c(F)ccc(F)c12 (single isomer, unassigned; isomer-i) [Example 26, cis-N-(3-Fluoropiperidin-4-yl)-1-(5-fluoropyridin-4-ylmethyl)-4,7-difluoro-1H-indole-3-carboxamide hydrochloride (Isomer-I)]",1100 nM
4,"O=C(N[C@H]1CCNC[C@H]1F)c1cn(Cc2ccnc(Cl)c2)c2cccc(F)c12 (single isomer, unassigned; isomer-i) [Example 27, cis-N-(3-Fluoropiperidin-4-yl)-1-(2-chloropyridin-4-ylmethyl)-4-fluoro-1H-indole-3-carboxamide hydrochloride (Isomer-I)]",1690 nM
5,"O=C(N[C@H]1CCNC[C@H]1F)c1cn(Cc2ccnc(Cl)c2)c2c(F)ccc(F)c12 (single isomer, unassigned; isomer-i) [Example 29, cis-N-(3-Fluoropiperidin-4-yl)-1-(2-chloropyridin-4-ylmethyl)-4,7-difluoro-1H-indole-3-carboxamide hydrochloride (Isomer-I)]",2920 nM
6,"O=C(N[C@H]1CCNC[C@H]1F)c1cn(Cc2ccc(F)cc2)c2c(F)ccc(F)c12 (single isomer, unassigned; isomer-i) [Example 31, cis-N-(3-Fluoropiperidin-4-yl)-1-(4-fluorobenzyl)-4,7-difluoro-1H-indole-3-carboxamide hydrochloride (Isomer-I)]",1610 nM
7,"O=C(N[C@H]1CCNC[C@H]1F)c1cn(Cc2ccccc2F)c2cccc(F)c12 (single isomer, unassigned; isomer-i) [Example 33, cis-N-(3-Fluoropiperidin-4-yl)-1-(2-fluorobenzyl)-4-fluoro-1H-indole-3-carboxamide hydrochloride (Isomer-I)]",1370 nM
8,"O=C(N[C@H]1CCNC[C@H]1F)c1cn(Cc2ccc(Cl)cc2)c2cccc(F)c12 (single isomer, unassigned; isomer-i) [Example 34, cis-N-(3-Fluoropiperidin-4-yl)-1-(4-chlorobenzyl)-4-fluoro-1H-indole-3-carboxamide hydrochloride (Isomer-I)]",1390 nM
9,"COc1ccc(Cn2cc(C(=O)N[C@H]3CCNC[C@H]3F)c3c(F)ccc(F)c32)cc1 (single isomer, unassigned; isomer-i) [Example 39, cis-N-(3-Fluoropiperidin-4-yl)-1-(4-methoxybenzyl)-4,7-difluoro-1H-indole-3-carboxamide hydrochloride (Isomer-I)]",1480 nM
10,"O=C(N[C@H]1CCNC[C@H]1F)c1cn(Cc2ccnc(F)c2)c2cccc(F)c12 (single isomer, unassigned; isomer-i) [Example 44, cis-N-(3-Fluoropiperidin-4-yl)-1-(2-fluoropyridin-4-ylmethyl)-4-fluoro-1H-indole-3-carboxamide hydrochloride (Isomer-I)]",1310 nM
11,"O=C(N[C@H]1CCNC[C@H]1F)c1cn(Cc2ccc3ncsc3c2)c2cccc(F)c12 (single isomer, unassigned; isomer-i) [Example 45, cis-N-(3-Fluoropiperidin-4-yl)-1-(benzothiazol-6-ylmethyl)-4-fluoro-1H-indole-3-carboxamide hydrochloride (Isomer-I)]",1160 nM
